According to patent US20230113775A1, “ANHYDROUS COMPOSITIONS OF EGFR INHIBITORS AND METHODS OF USE” (priority 2021, published 2023):
“Also recorded” adds a separate entry of the source.

Columns and labels:
[1] = test system: Normal keratinocyte cells; assay: Effect of erlotinib on 2D non-diseased keratinocytes (proliferation, Loricrin expression); assay type: cell-based
Procedure: Normal keratinocyte cells were cultured and treated with vehicle or erlotinib at 100, 500 and 1000 nM. The proliferation rate of the cells was determined.

[2] = test system: Non-diseased 3D human skin equivalent (HSE); assay: Effect of erlotinib on non-diseased 3D human skin equivalent; assay type: cell-based; conditions: 100 nM erlotinib every 72 hours until harvest at day 10
Procedure: Human skin equivalents were prepared by methods known in the art. Examples of such methods are disclosed in Mieremet et al. Int. J. Mol. Sci. (2021) 22(11):5790. Non-diseased cells were plated for 3D human skin equivalent (HSE) and treated with 100 nM erlotinib from the time of lifting to the air-liquid interface every 72 hours until harvest at day 10. The samples were subjected to protein, mRNA, immunofluorescence and morphological analysis.

EI derived keratinocyte = assay: Effect of erlotinib on 2D cultured keratinocytes derived from epidermolytic ichthyosis (colony density); assay type: cell-based, human; conditions: 100 nM erlotinib; microscope and fold change
Procedure: Tissue from non-diseased donors and EI patients were cultured and treated with 100 nM erlotinib.

3D EI HSE = assay: Effect of erlotinib on EI 3D HSE (morphological analysis); assay type: cell-based, human; conditions: 100 nM erlotinib every 72 hours until harvest at day 12; EI constructs
Procedure: Non-diseased cells and cells from an EI patient were plated for 3D human skim equivalent (HSE)and treated with 100 nM erlotinib from the time of lifting to the air-liquid interface every 72 hours until harvest at day 12. The samples were subjected to morphological analysis. […] (FIGS. 4A-B).

non-diseased 3D HSE = assay: TEER epidermal barrier function, non-diseased 3D HSE; assay type: cell-based, human; conditions: 10 nM and 100 nM erlotinib
EI 3D HSE = assay: TEER epidermal barrier function, EI 3D HSE; assay type: cell-based, human; conditions: 10 nM and 100 nM erlotinib
[3] = test system: Non-diseased 3D human skin equivalent (HSE); assay: Gene expression analysis, non-diseased 3D HSE; assay type: cell-based
Procedure: (§1) Non-diseased cells and cells from an EI patient were plated for 3D human skin equivalent (HSE)and treated with the erlotinib at 10 nM or 100 nM from the time of lifting to the air-liquid interface every 72 hours until harvest at day 10. The samples were subjected to gene expression analysis. […] Markers of terminal differentiation such as fillaggrin (FLG) and loricrin (LOR) and markers of cell adhesion such as desmoglein 1 (DSG 1) were also modified.
Gene expression results for non-diseased tissue following treatment with erlotinib: […]

[4] = test system: EI patient 3D human skin equivalent (HSE); assay: Gene expression analysis, EI patient 3D HSE; assay type: cell-based; conditions: for CDN4 gene expression / CLDN1 gene expression / DSC1 gene expression / DSG1 gene expression / FLG gene expression / IVL gene expression / KRT10 gene expression / KRT16 gene expression / LOR gene expression / OCLN gene expression / TJP1 gene expression: Control 1.00
Procedure: as §1
Gene expression results for EI patient tissue following treatment with erlotinib: […]

[5] = test system: Hairless Skh-1 mice treated with TPA; assay: Mouse model of hyperkeratosis (TPA-induced skin inflammation); assay type: in vivo; conditions: composition comprising 0.4%, 1.0% or 4.0% erlotinib daily starting on Day 8
Procedure: Hairless Skh-1 mice were treated with 12-O-Tetradecanoylphorbol-13-acetate (TPA) daily for 7 days than every other day for the next 7 days to induce skin inflammation. The mice were then treated with vehicle or a composition comprising 0.4%, 1.0% or 4.0% erlotinib daily starting on Day 8. The mice were assessed for degrees of inflammation, transepidermal water loss and expression of p^Y1068EGFR, EGFR, KRT10 and KRT16.

[6] = harvest day 10, listed as Erlotinib
[7] = Erlo 10 nM, NHEK83.19 non-diseased 3D HSE, Control 1.00
[8] = Erlo 10 nM, NUTC394.14 non-diseased 3D HSE, Control 1.00
[9] = Erlo 10 nM, NUTC439.14 non-diseased 3D HSE, Control 1.0
[10] = Erlo 100 nM, NHEK83.19 non-diseased 3D HSE, Control 1.00
[11] = Erlo 100 nM, NUTC394.14 non-diseased 3D HSE, Control 1.00
[12] = Erlo 100 nM, NUTC439.14 non-diseased 3D HSE, Control 1.0
[13] = Erlo 10 nM, CMH98.11 EI patient 3D HSE
[14] = Erlo 10 nM, CMH101.11 EI patient 3D HSE
[15] = Erlo 10 nM, CMH102.11 EI patient 3D HSE
[16] = Erlo 100 nM, CMH98.11 EI patient 3D HSE
[17] = Erlo 100 nM, CMH101.11 EI patient 3D HSE
[18] = Erlo 100 nM, CMH102.11 EI patient 3D HSE

For C#Cc1cccc(Nc2ncnc3cc(OCCOC)c(OCCOC)cc23)c1 [erlotinib], the keratinocyte differentiation ([1]; following exposure to erlotinib) was “keratinocyte differentiation is increased”, the Loricrin expression ([1]; high dose erlotinib) was “increased Loricrin expression” and the keratinocyte proliferation ([1]; medium and high doses of erlotinib (tested 100, 500 and 1000 nM) vs vehicle) was “decreased keratinocyte proliferation”. For the same compound, the desmosomal organization [2] was “desmosomal organization is enhanced”, the terminal differentiation [2] was “enhances terminal differentiation” and the “EI derived keratinocyte colony density” value (EI derived keratinocyte) was “marked reduction in colony density; also recorded: markedly reduced”. For the same compound, the “morphologic change in the upper epidermis” value (3D EI HSE) was “marked morphologic change”, the “epidermal barrier function (TEER)” value (non-diseased 3D HSE; harvest day 10) was “does not impair epidermal barrier function” and the “epidermal barrier function (TEER)” value (non-diseased 3D HSE; [6]) was “did not produced a significant change in TEER values”. The “epidermal barrier function (TEER)” value (EI 3D HSE; harvest day 10) was “does not impair epidermal barrier function”, the “epidermal barrier function (TEER)” value (EI 3D HSE; [6]) was “did not produced a significant change in TEER values” and the CDN4 gene expression [3, 7] was 2.92. The CLDN1 gene expression [3, 7] was 1.30, the DSC1 gene expression [3, 7] was 0.60 and the DSG1 gene expression [3, 7] was 0.73. For the same compound, the FLG gene expression [3, 7] was 0.51, the IVL gene expression [3, 7] was 2.15 and the KRT10 gene expression [3, 7] was 0.28. The KRT16 gene expression [3, 7] was 1.70, the LOR gene expression [3, 7] was 0.03 and the OCLN gene expression [3, 7] was 1.76. It also gave a TJP1 gene expression [3, 7] of 1.65, a CDN4 gene expression [3, 8] of 2.87 and a CLDN1 gene expression [3, 8] of 1.28. It also gave a DSC1 gene expression [3, 8] of 0.59, a DSG1 gene expression [3, 8] of 0.72 and an FLG gene expression [3, 8] of 0.50. It also gave an IVL gene expression [3, 8] of 2.11, a KRT10 gene expression [3, 8] of 0.27 and a KRT16 gene expression [3, 8] of 1.67. The LOR gene expression [3, 8] was 0.03, the OCLN gene expression [3, 8] was 1.73 and the TJP1 gene expression [3, 8] was 1.62. It also gave a CDN4 gene expression [3, 9] of 0.7, a CLDN1 gene expression [3, 9] of 1.9 and a DSC1 gene expression [3, 9] of 1.9. For the same compound, the DSG1 gene expression [3, 9] was 2.1, the FLG gene expression [3, 9] was 1.0 and the IVL gene expression [3, 9] was 0.9. For the same compound, the KRT10 gene expression [3, 9] was 2.1, the KRT16 gene expression [3, 9] was 0.9 and the LOR gene expression [3, 9] was 1.4. For the same compound, the OCLN gene expression [3, 9] was 0.7, the TJP1 gene expression [3, 9] was 0.7 and the CDN4 gene expression [3, 10] was 1.65. The CLDN1 gene expression [3, 10] was 1.24, the DSC1 gene expression [3, 10] was 2.69 and the DSG1 gene expression [3, 10] was 2.77. For the same compound, the FLG gene expression [3, 10] was 2.37, the IVL gene expression [3, 10] was 1.21 and the KRT10 gene expression [3, 10] was 11.50. It also gave a KRT16 gene expression [3, 10] of 1.00, an LOR gene expression [3, 10] of 8.19 and an OCLN gene expression [3, 10] of 1.36. The TJP1 gene expression [3, 10] was 1.58, the CDN4 gene expression [3, 11] was 1.54 and the CLDN1 gene expression [3, 11] was 1.16. The DSC1 gene expression [3, 11] was 2.52, the DSG1 gene expression [3, 11] was 2.59 and the FLG gene expression [3, 11] was 2.21. It also gave an IVL gene expression [3, 11] of 1.14, a KRT10 gene expression [3, 11] of 10.75 and a KRT16 gene expression [3, 11] of 0.89. The LOR gene expression [3, 11] was 7.66, the OCLN gene expression [3, 11] was 1.27 and the TJP1 gene expression [3, 11] was 1.48. It also gave a CDN4 gene expression [3, 12] of 1.4, a CLDN1 gene expression [3, 12] of 29.4 and a DSC1 gene expression [3, 12] of 29.4. The DSG1 gene expression [3, 12] was 9.3, the FLG gene expression [3, 12] was 25.9 and the IVL gene expression [3, 12] was 1.5. For the same compound, the KRT10 gene expression [3, 12] was 17.2, the KRT16 gene expression [3, 12] was 1.6 and the OCLN gene expression [3, 12] was 1.6. For the same compound, the TJP1 gene expression [3, 12] was 1.3, the “keratin 10 (KRT10) expression” value ([3]; normal human keratinocytes in 3D culture, erlotinib 10 nM or 100 nM) was “marked increase” and the “keratin 10 (KRT10) expression” value ([4]; EI derived human keratinocytes in 3D culture, erlotinib 10 nM or 100 nM) was “marked increase”. The CDN4 gene expression [4, 13] was 0.7, the CLDN1 gene expression [4, 13] was 0.9 and the DSC1 gene expression [4, 13] was 0.8. For the same compound, the DSG1 gene expression [4, 13] was 1.8, the FLG gene expression [4, 13] was 1.2 and the IVL gene expression [4, 13] was 1.3. For the same compound, the KRT10 gene expression [4, 13] was 0.9, the KRT16 gene expression [4, 13] was 1.3 and the LOR gene expression [4, 13] was 1.2. For the same compound, the OCLN gene expression [4, 13] was 0.7, the TJP1 gene expression [4, 13] was 0.7 and the CDN4 gene expression [4, 14] was 0.96. The CLDN1 gene expression [4, 14] was 0.71, the DSC1 gene expression [4, 14] was 0.65 and the DSG1 gene expression [4, 14] was 1.11. For the same compound, the FLG gene expression [4, 14] was 1.08, the IVL gene expression [4, 14] was 1.04 and the KRT10 gene expression [4, 14] was 1.00. It also gave a KRT16 gene expression [4, 14] of 1.63, an LOR gene expression [4, 14] of 1.10 and an OCLN gene expression [4, 14] of 0.81. The TJP1 gene expression [4, 14] was 0.55, the CDN4 gene expression [4, 15] was 1.86 and the CLDN1 gene expression [4, 15] was 0.79. For the same compound, the DSC1 gene expression [4, 15] was 0.79, the DSG1 gene expression [4, 15] was 4.72 and the FLG gene expression [4, 15] was 1.22. For the same compound, the IVL gene expression [4, 15] was 1.58, the KRT10 gene expression [4, 15] was 2.27 and the KRT16 gene expression [4, 15] was 1.31. It also gave an LOR gene expression [4, 15] of 0.90, an OCLN gene expression [4, 15] of 1.15 and a TJP1 gene expression [4, 15] of 1.13. For the same compound, the CDN4 gene expression [4, 16] was 1.8, the CLDN1 gene expression [4, 16] was 1.6 and the DSC1 gene expression [4, 16] was 1.7. The DSG1 gene expression [4, 16] was 1.9, the FLG gene expression [4, 16] was 1.1 and the IVL gene expression [4, 16] was 2.3. The KRT10 gene expression [4, 16] was 1.6, the KRT16 gene expression [4, 16] was 0.8 and the LOR gene expression [4, 16] was 0.6. It also gave an OCLN gene expression [4, 16] of 1.2, a TJP1 gene expression [4, 16] of 1.2 and a CDN4 gene expression [4, 17] of 0.72. The CLDN1 gene expression [4, 17] was 0.37, the DSC1 gene expression [4, 17] was 6.09 and the DSG1 gene expression [4, 17] was 2.57. The FLG gene expression [4, 17] was 0.72, the IVL gene expression [4, 17] was 0.83 and the KRT10 gene expression [4, 17] was 5.78. For the same compound, the KRT16 gene expression [4, 17] was 0.85, the LOR gene expression [4, 17] was 0.95 and the OCLN gene expression [4, 17] was 0.57. It also gave a TJP1 gene expression [4, 17] of 0.57, a CDN4 gene expression [4, 18] of 3.17 and a CLDN1 gene expression [4, 18] of 2.20. It also gave a DSC1 gene expression [4, 18] of 2.20, a DSG1 gene expression [4, 18] of 6.61 and an FLG gene expression [4, 18] of 2.06. For the same compound, the IVL gene expression [4, 18] was 1.76, the KRT10 gene expression [4, 18] was 6.44 and the KRT16 gene expression [4, 18] was 1.14. The LOR gene expression [4, 18] was 0.79, the OCLN gene expression [4, 18] was 1.92 and the TJP1 gene expression [4, 18] was 1.44. For the same compound, the skin inflammation ([5]; TPA-treated Skh-1 mice) was “dose dependent reduction of skin inflammation”, the transepithelial water loss ([5]; TPA-treated Skh-1 mice) was “significantly decreasing transepithelial water loss” and the “expression of p^Y1068EGFR, EGFR, KRT10 and KRT16” value ([5]; Western blot) was “dose dependent change”.
